Experimental data reported in the supplement of paper PMC10627819.

Key:
[1] = tested on: S. pneumoniae D39V; experiment: fitness (endpoint OD595 vs no drug) (fraction); higher = more growth
Outline: (§1)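 Bacterial fitness was scored as optical density at the stationary-phase transition relative to the robust mean of no-drug control wells. Scores are capped at 1. The growth data were OD595 readings every 30 min for 14 h at 37 °C, background-subtracted against the first reading, from 384-well plates inoculated at OD595 0.01 in TSB, LB Lennox or CY.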

[2] = tested on: S. aureus Newman; experiment: as above
Outline: as §1

[3] = tested on: S. aureus DSM 20231; experiment: Bliss interaction score (quartile over a dose matrix) (fitness difference); higher = more antagonism (negative = synergy)
Outline: (§2)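 Each OD595 reading at entry into stationary phase was scaled to the robust mean of the untreated wells on its plate, with a ceiling of 1. These ratios define fitness, and single-drug fitness was inferred from combinations. The Bliss score compares observed fitness with the product-based expectation and is reported as quartiles across all replicate types, technical, biological and donor/recipient.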

[4] = tested on: B. subtilis 168; experiment: as above
Outline: as §2

[5] = tested on: S. pneumoniae D39V; experiment: as above
Outline: as §2

[6] = tested on: S. aureus Newman; experiment: as above
Outline: as §2

[7] = tested on: S. aureus DSM 20231; experiment: fitness (endpoint OD595 vs no drug) (fraction); higher = more growth
Outline: as §1

[8] = tested on: B. subtilis 168; experiment: as above
Outline: as §1
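Throughout, for Bliss interaction score (quartile over a dose matrix): first quartile when negative (synergy) and third quartile when positive (antagonism).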
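Throughout, for fitness (endpoint OD595 vs no drug): OD595 on entry to stationary phase over no-drug wells; at most 1.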

CO/N=C(\C(=O)N[C@@H]1C(=O)N2C(C(=O)[O-])=C(C[N+]3(C)CCCC3)CS[C@H]12)c1csc(N)n1 [Cefepime] + CC(C1CCC(C(O1)OC2C(CC(C(C2O)OC3C(C(C(CO3)(C)O)NC)O)N)N)N)NC [Gentamicin]
main component drawn
Settings	fitness
[1], first compound 0.007 µg/mL, partner 2 µg/mL	0.994
[1], first compound 0.007 µg/mL, partner 4 µg/mL	0.996
[1], first compound 0.007 µg/mL, partner 8 µg/mL	0.97
[1], first compound 0.0078 µg/mL, partner 2 µg/mL	1
[1], first compound 0.0078 µg/mL, partner 4 µg/mL	≥ 1
[1], first compound 0.0078 µg/mL, partner 8 µg/mL	0.972
[1], first compound 0.014 µg/mL, partner 2 µg/mL	≥ 1
[1], first compound 0.014 µg/mL, partner 4 µg/mL	0.99
[1], first compound 0.014 µg/mL, partner 8 µg/mL	≥ 1
[1], first compound 0.0155 µg/mL, partner 2 µg/mL	0.964
[1], first compound 0.0155 µg/mL, partner 4 µg/mL	0.974
[1], first compound 0.0155 µg/mL, partner 8 µg/mL	0.971
[1], first compound 0.028 µg/mL, partner 2 µg/mL	0.926
[1], first compound 0.028 µg/mL, partner 4 µg/mL	0.932
[1], first compound 0.028 µg/mL, partner 8 µg/mL	0.885
[1], first compound 0.031 µg/mL, partner 2 µg/mL	0.493
[1], first compound 0.031 µg/mL, partner 8 µg/mL	0.439
[2], first compound 0.125 µg/mL, partner 0.375 µg/mL	0.954
[2], first compound 0.125 µg/mL, partner 0.5 µg/mL	0.871
[2], first compound 0.125 µg/mL, partner 0.75 µg/mL	0.94
[2], first compound 0.125 µg/mL, partner 1 µg/mL	≥ 1
[2], first compound 0.125 µg/mL, partner 1.5 µg/mL	0.916
[2], first compound 0.125 µg/mL, partner 2 µg/mL	≥ 1
[2], first compound 0.25 µg/mL, partner 0.375 µg/mL	0.857
[2], first compound 0.25 µg/mL, partner 0.5 µg/mL	0.816
[2], first compound 0.25 µg/mL, partner 0.75 µg/mL	0.837
[2], first compound 0.25 µg/mL, partner 1 µg/mL	0.906
[2], first compound 0.25 µg/mL, partner 1.5 µg/mL	0.787
[2], first compound 0.25 µg/mL, partner 2 µg/mL	0.966
[2], first compound 0.5 µg/mL, partner 0.375 µg/mL	0.799
[2], first compound 0.5 µg/mL, partner 0.5 µg/mL	0.757
[2], first compound 0.5 µg/mL, partner 0.75 µg/mL	0.818
[2], first compound 0.5 µg/mL, partner 1 µg/mL	0.804
[2], first compound 0.5 µg/mL, partner 1.5 µg/mL	0.744
[2], first compound 0.5 µg/mL, partner 2 µg/mL	0.87

main component drawn
Settings	Bliss interaction score
[3]	0.0966
[4]	-0.134
[5]	0.0531
[6]	-0.0492

CO/N=C(\C(=O)N[C@@H]1C(=O)N2C(C(=O)[O-])=C(C[N+]3(C)CCCC3)CS[C@H]12)c1csc(N)n1 [Cefepime] + CN(C)c1cc(NC(=O)CNC(C)(C)C)c(O)c2c1C[C@H]1C[C@H]3[C@H](N(C)C)C(O)=C(C(N)=O)C(=O)[C@@]3(O)C(O)=C1C2=O [Tigecycline]
Settings	fitness
[1], first compound 0.007 µg/mL, partner 0.325 µg/mL	0.996
[1], first compound 0.007 µg/mL, partner 0.65 µg/mL	0.964
[1], first compound 0.007 µg/mL, partner 1.3 µg/mL	0.955
[1], first compound 0.0078 µg/mL, partner 0.65 µg/mL	0.963
[1], first compound 0.0078 µg/mL, partner 1.3 µg/mL	0.943
[1], first compound 0.0078 µg/mL, partner 2.6 µg/mL	0.918
[1], first compound 0.014 µg/mL, partner 0.325 µg/mL	≥ 1
[1], first compound 0.014 µg/mL, partner 0.65 µg/mL	0.983
[1], first compound 0.014 µg/mL, partner 1.3 µg/mL	0.99
[1], first compound 0.0155 µg/mL, partner 0.65 µg/mL	0.91
[1], first compound 0.0155 µg/mL, partner 1.3 µg/mL	0.935
[1], first compound 0.0155 µg/mL, partner 2.6 µg/mL	0.883
[1], first compound 0.028 µg/mL, partner 0.325 µg/mL	0.951
[1], first compound 0.028 µg/mL, partner 0.65 µg/mL	0.877
[1], first compound 0.028 µg/mL, partner 1.3 µg/mL	0.865
[1], first compound 0.031 µg/mL, partner 0.65 µg/mL	0.543
[1], first compound 0.031 µg/mL, partner 1.3 µg/mL	0.698
[1], first compound 0.031 µg/mL, partner 2.6 µg/mL	0.684
[2], first compound 0.125 µg/mL, partner 0.039 µg/mL	0.905
[2], first compound 0.125 µg/mL, partner 0.078 µg/mL	0.92
[2], first compound 0.125 µg/mL, partner 0.156 µg/mL	0.882
[2], first compound 0.25 µg/mL, partner 0.039 µg/mL	0.837
[2], first compound 0.25 µg/mL, partner 0.078 µg/mL	0.838
[2], first compound 0.25 µg/mL, partner 0.156 µg/mL	0.862
[2], first compound 0.5 µg/mL, partner 0.039 µg/mL	0.72
[2], first compound 0.5 µg/mL, partner 0.078 µg/mL	0.763
[2], first compound 0.5 µg/mL, partner 0.156 µg/mL	0.798

Settings	Bliss interaction score
[3]	0.0417
[4]	0.115
[5]	0.0368
[6]	-0.0743

CO/N=C(\C(=O)N[C@@H]1C(=O)N2C(C(=O)[O-])=C(C[N+]3(C)CCCC3)CS[C@H]12)c1csc(N)n1 [Cefepime] + CN[C@@H]1[C@H](O[C@H]2[C@H](O[C@H]3[C@H](O)[C@@H](O)[C@H](N=C(N)N)[C@@H](O)[C@@H]3N=C(N)N)O[C@@H](C)[C@]2(O)C=O)O[C@@H](CO)[C@H](O)[C@H]1O [Streptomycin]
fitness
Settings	partner 1 µg/mL	partner 2 µg/mL	partner 4 µg/mL	partner 8 µg/mL
[1], first compound 0.007 µg/mL	–	0.949	0.945	0.965
[1], first compound 0.0078 µg/mL	–	–	≥ 1	0.903
[1], first compound 0.014 µg/mL	–	0.971	0.954	0.984
[1], first compound 0.0155 µg/mL	–	–	0.984	0.889
[1], first compound 0.028 µg/mL	–	0.864	0.874	0.912
[1], first compound 0.031 µg/mL	–	–	0.475	0.538
[2], first compound 0.125 µg/mL	0.939	0.882	–	–
[2], first compound 0.25 µg/mL	0.865	0.848	–	–
[2], first compound 0.5 µg/mL	0.765	0.773	–	–

fitness, [1], one replicate
Settings	first compound 0.0078 µg/mL	first compound 0.0155 µg/mL	first compound 0.031 µg/mL
partner 2 µg/mL	≥ 1	0.977	0.468
partner 16 µg/mL	0.883	0.863	0.481

Settings	Bliss interaction score
[3]	0.0906
[4]	-0.159
[5]	0.0613
[6]	0.0474

CCCCCCCCCC(=O)N[C@@H](Cc1c[nH]c2ccccc12)C(=O)N[C@H](CC(N)=O)C(=O)N[C@@H](CC(=O)O)C(=O)N[C@@H]1C(=O)NCC(=O)N[C@@H](CCCN)C(=O)N[C@@H](CC(=O)O)C(=O)N[C@H](C)C(=O)N[C@@H](CC(=O)O)C(=O)NCC(=O)N[C@H](CO)C(=O)N[C@@H]([C@H](C)CC(=O)O)C(=O)N[C@@H](CC(=O)c2ccccc2N)C(=O)O[C@@H]1C [Daptomycin] + CC(=O)NC[C@H]1CN(c2ccc(N3CCOCC3)c(F)c2)C(=O)O1 [Linezolid]
one replicate
Settings	fitness
[7], first compound 0.125 µg/mL, partner 0.125 µg/mL	0.729
[7], first compound 0.125 µg/mL, partner 1 µg/mL	0.0431
[7], first compound 0.25 µg/mL, partner 0.125 µg/mL	0.869
[7], first compound 0.25 µg/mL, partner 1 µg/mL	0.0221
[7], first compound 0.5 µg/mL, partner 1 µg/mL	0.0214
[8], first compound 0.125 µg/mL, partner 0.0625 µg/mL	0.944
[8], first compound 0.25 µg/mL, partner 0.0625 µg/mL	0.932
[8], first compound 0.5 µg/mL, partner 0.0625 µg/mL	0.802
[8], first compound 1 µg/mL, partner 0.125 µg/mL	0.6
[8], first compound 1 µg/mL, partner 0.25 µg/mL	0.279
[8], first compound 1 µg/mL, partner 0.5 µg/mL	0.0175

fitness
Settings	first compound 0.125 µg/mL	first compound 0.25 µg/mL	first compound 0.5 µg/mL	first compound 1 µg/mL	first compound 2 µg/mL	first compound 4 µg/mL
[1], partner 0.105 µg/mL	–	–	–	0.741	0.786	0.77
[1], partner 0.2 µg/mL	–	–	–	0.409	0.413	0.412
[1], partner 0.21 µg/mL	–	–	–	0.651	0.689	0.689
[1], partner 0.4 µg/mL	–	–	–	0.207	0.22	0.205
[1], partner 0.42 µg/mL	–	–	–	0.476	0.447	0.554
[1], partner 0.8 µg/mL	–	–	–	0.0731	0.0931	0.0732
[7], partner 0.125 µg/mL	–	–	0.844	0.928	0.951	–
[7], partner 0.25 µg/mL	0.629	0.595	0.651	0.823	0.775	–
[7], partner 0.5 µg/mL	0.19	0.177	0.257	0.319	0.335	–
[8], partner 0.125 µg/mL	0.604	0.605	0.508	–	–	–
[8], partner 0.25 µg/mL	0.0809	–	–	–	–	–
[8], partner 0.5 µg/mL	0.0486	0.0567	0.0348	–	–	–

Settings	Bliss interaction score
[3]	0.0745
[4]	0.0563
[5]	-0.141
[6]	0.0604
